pIC50: −log10 of the molar value.
Experiments:
Monoglyceride lipase [1] = target: T1, Monoglyceride lipase (Homo sapiens, UniProt Q99685); assay: Inhibition of human recombinant MAGL using 4-nitrophenylacetate as substrate after 30 mins
T1 sequence (Q99685 whole entry): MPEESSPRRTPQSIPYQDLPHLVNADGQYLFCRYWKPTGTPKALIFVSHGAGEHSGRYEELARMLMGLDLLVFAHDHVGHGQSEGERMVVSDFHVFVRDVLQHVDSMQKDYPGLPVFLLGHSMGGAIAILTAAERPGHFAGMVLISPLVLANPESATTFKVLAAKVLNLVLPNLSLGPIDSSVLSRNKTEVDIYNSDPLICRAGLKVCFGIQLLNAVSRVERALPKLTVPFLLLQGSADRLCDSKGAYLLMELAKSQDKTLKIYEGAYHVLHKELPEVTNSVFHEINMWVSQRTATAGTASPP

MDA-MB-231 = assay: Cytotoxicity against human MDA-MB-231 cells assessed as growth inhibition after 96 hrs; details: MDA-MB-231, 96 h
[2] = Cytotoxicity against human OVCAR3 cells assessed as growth inhibition after 96 hrs; details: OVCAR-3, 96 h
MCF7 = assay: Cytotoxicity against human MCF7 cells assessed as growth inhibition after 96 hrs; details: MCF7, 96 h
[3] = Cytotoxicity against human COV318 cells assessed as growth inhibition after 96 hrs; details: COV318, 96 h
[4] = Cytotoxicity against human MSC assessed as growth inhibition after 96 hrs
Monoglyceride lipase [5] = target: T1, Monoglyceride lipase; assay: Inhibition of human recombinant MAGL using 4-nitrophenylacetate as substrate
Monoglyceride lipase [6] = target: T1, Monoglyceride lipase; assay: Inhibition of human recombinant MAGL using 4-nitrophenylacetate as substrate preincubated for 30 mins followed by substrate addition
Monoglyceride lipase [7] = target: T1, Monoglyceride lipase; assay: Inhibition of human recombinant MAGL using 4-nitrophenylacetate as substrate preincubated for 60 mins followed by substrate addition

Work on O=C(c1ccc([N+](=O)[O-])cc1)c1ccc2c(c1)C(=O)N(c1cccnc1)C2=O yielded a pIC50 (Monoglyceride lipase [1]) of less than 3.30.

In the case of COc1ccc(-c2nnc(SCC(=O)N3CCN(c4ccc(OC)cc4)CC3)o2)cc1, the pIC50 (Monoglyceride lipase [1]) was less than 3.30.

COc1ccc(C(=O)N2CCC(C(=O)c3ccc(Cl)cc3)CC2)cc1 showed a pIC50 (MDA-MB-231) of 4.12, a pIC50 [2] of 4.29 and a pIC50 (MCF7) of 4.70. For the same compound, the pIC50 [3] was 4.13 and the pIC50 [4] was less than 3.52.

Compound COc1ccc(CNC(=O)c2ccc3nc(-c4ccoc4)c(-c4ccoc4)nc3c2)cc1 has a pIC50 (Monoglyceride lipase [1]) of less than 3.30.

O=C(Cc1ccccc1)N1CCC(C(=O)N2CCN(c3ccc(F)cc3)CC2)CC1 showed a pIC50 (Monoglyceride lipase [1]) of less than 3.30.

In the case of COc1ccc(-c2nnn(CC(=O)N3CCN(c4ccc(F)cc4)CC3)n2)cc1, the pIC50 (Monoglyceride lipase [1]) was less than 3.30.

In the case of O=C(Cn1nnc(-c2ccc(N3CCOCC3)cc2)n1)N1CCN(c2ccccc2)CC1, the pIC50 (Monoglyceride lipase [1]) was less than 3.30.

COc1nn(-c2ccc(NC(=O)OCc3ccccc3)c(C)c2)c(=O)o1 showed a pIC50 (Monoglyceride lipase [5]) of 6.84, a pIC50 (MDA-MB-231) of 4.34 and a pIC50 (Monoglyceride lipase [6]) of 7.59. It also gave a pIC50 [2] of less than 4.10, a pIC50 (MCF7) of 5.38 and a pIC50 [3] of 3.97. The pIC50 [4] was 3.56 and the pIC50 (Monoglyceride lipase [7]) was 8.05.

CCOc1ccc(N2CC(C(=O)Nc3ccc(C(C)=O)cc3)CC2=O)cc1 (stereo not given) gave a pIC50 (Monoglyceride lipase [1]) of less than 3.30.
